Patent US11779582B2, “Composition for preventing or treating metastatic ovarian cancer, endometrial cancer or breast cancer” (LEMONEX INC., priority 2017, dated 2023)

How the values were obtained:
Type in all cases: cell-based
[1] = system: cleaved PARP in SKOV3-TR ovarian cancer cells; test: cleaved PARP immunostaining; conditions: BGJ398 in combination with paclitaxel (FIGS. 24 and 25)
Description: In order to identify whether a change in signaling pathways associated with cell survival appears or not according to 2D monolayer culture (2D MC) and 3D sphere culture (3D SC), immunostaining was implemented. More particularly, after culturing SKOV3ip1 cells (1×10^6) by 2D monolayer culture or 3D sphere culture described in section 1.1, expression of cell-signaling molecules including AKT, STAT3, p42/44 ERK and p38 MAPK was detected and activation states in the monolayer cultured cells and the sphere cultured cells were compared. […] An immune activation band was detected with SuperSignal West Pico Chemiluminescent Substrate (Thermo, IL, USA) using a Fusion Solo chemiluminescence analyzer (Vilber Rourmat Marne la Vallee, France). […]
FIGS. 24 and 25 illustrate expression of cleaved PARP and actin upon administration of paclitaxel alone, BGJ398 alone or in combination with paclitaxel to SKOV3-TR ovarian cancer cells, which was determined by the immunostaining method described above.

[2] = system: phosphorylated AKT and XIAP in SKOV3-TR ovarian cancer cells; test: immunostaining of AKT down-signal mechanism; conditions: BGJ398 treatment, paclitaxel alone or in combination with BGJ398 (FIG. 27)
Procedure: FIG. 27 illustrates results of identifying whether there is expression of AKT, phosphorylated AKT, BAD, phosphorylated BAD, XIAP, CASP9, p42/44 and/or phosphorylated p42/44, in order to determine AKT down-signal mechanism in relation to cell survival and cell apoptosis in the cells when paclitaxel alone or in combination with BGJ398 was administered to SKOV3-TR ovarian cancer cells. […] The reason of this fact is considered because a level of XIAP expression in the cells is decreased thus to improve paclitaxel sensitivity.

[3] = system: sphere cultured SKOV3ip1 cells; test: microscopic observation of aggregated (spheroid) form; conditions: 5 μM BGJ398, 3 μM TAE648, 5 μM imatinib (FIG. 5)
Procedure: For 3D sphere culture, SKOV3ip1 cells (1×10^6) were dispensed on ultra-low adherent 6-well plate (Corning NY, USA), and then, cultured in 5% CO2 incubator using RPMI 1640 medium supplemented with 10% fetal bovine serum (Gibco, NY, USA) and 10 U/ml penicillin/streptomycin (Gibco).

SKOV3-TR = test: crystal violet staining assay, cisplatin and BGJ398, 2D culture; conditions: BGJ398 in combination with cisplatin (FIGS. 30 and 31)
Procedure: (§1) According to the same procedures as described in the previous examples, each cell line was subjected to 2D culture and a change thereof upon administration of cisplatin alone, BGJ398 alone or in combination with cisplatin was analyzed through crystal violet staining assay.

SKOV3ip1 = test: as above; conditions: SKOV3ip1, BGJ398 in combination with cisplatin (FIGS. 30 and 31)
Procedure: as §1

[4] = system: SKOV3ip1-TR ovarian cancer cells; test: microscopic analysis of cell shape change; conditions: BGJ398 in combination with paclitaxel (FIG. 21)
Procedure: FIG. 21 illustrates a change in cell shape, when paclitaxel alone, BGJ398 alone or in combination with […] was administered to the SKOV3ip1-TR ovarian cancer cells.

[5] = system: HEC1B endometrial cancer cell line (2D monolayer culture); test: crystal violet staining and morphology, paclitaxel in combination with BGJ398
Procedure: (§2) With respect to the cancer cell lines listed in Table 2 below, synergistic effects of paclitaxel and BGJ398 were further examined. According to the same procedures as described in the previous examples, each cell line was divided and cultured by 2D monolayer culture and 3D sphere culture, respectively. Then, a change due to administration of BGJ398 alone or in combination with paclitaxel was analyzed through morphological analysis.

[6] = system: Hs578T breast cancer cell line (2D monolayer culture); test: as above
Procedure: as §2

## CCN1CCN(c2ccc(Nc3cc(N(C)C(=O)Nc4c(Cl)c(OC)cc(OC)c4Cl)ncn3)cc2)CC1 [BGJ398, 3-(2,6-dichloro-3,5-dimethoxyphenyl)-1-[6-[4-(4-ethylpiperazin-1yl)anilino]pyrimidin-4-yl]-1-methylurea]
[1]
  expression of cleaved PARP and actin: increased in concentration- and time-dependent manners
[2]
  XIAP expression: XIAP expression is reduced
  level of phosphorylated AKT: significantly decreased
[3]
  aggregated (spheroid) form of cells: did not retain a normal coagulation state
SKOV3-TR
  anticancer activity: anticancer activity is improved
SKOV3ip1
  anticancer activity: anticancer activity is improved
[4]
  paclitaxel resistance / anticancer activity (cell shape): can block paclitaxel resistance, thereby increasing anticancer activity
[5]; 2D monolayer HEC1B, BGJ398 in combination with paclitaxel (FIG. 10)
  effect on anticancer effects of paclitaxel: enhance anticancer effects of paclitaxel
[5]; HEC1B, BGJ398 in combination with paclitaxel (FIGS. 10 and 11)
  cell apoptosis: cell apoptosis is further increased
[6]; 2D monolayer Hs578T, BGJ398 in combination with paclitaxel (FIG. 13)
  effect on anticancer effects of paclitaxel: enhance anticancer effects of paclitaxel
[6]; Hs578T, BGJ398 in combination with paclitaxel (FIGS. 13 and 14)
  cell apoptosis: cell apoptosis is further increased
